# Structures can show the parent of a compound that is named as a salt.
# Legend:
# [1] = test system: detrusor muscles of excised rabbit bladder; assay: Ca++ antagonism upon detrusor muscles of excised rabbit bladder (calcium chloride contraction); conditions: for pA2 value, Ca++ Antagonism: calcium chloride cumulation, Ca++-free, high KCl-modified Krebs' solution, excised rabbit detrusor
# in vivo = conditions: rat, iv, 3 mg/kg
# Experimental: 4. Concentration of unchanged drug in the serum
# A drug being tested was administered to an SD rat (male; 280 to 360 g) in a dose of 3 mg/kg (i.v.), blood samples were taken out at predetermined intervals, and the change in the concentration of said drug left unchanged in the serum was measured.
# rat bladder = conditions: for Frequency (cycles of contraction per minute), 0.1 mg/kg (i.v.) / Frequency (cycles of contraction per minute), 0.3 mg/kg (i.v.) / Frequency (cycles of contraction per minute), 1.0 mg/kg (i.v.) / Frequency (cycles of contraction per minute), 3.0 mg/kg (i.v.): 0 to 15 minutes, cumulative administration; for Frequency (cycles of contraction per minute), 1.0 mg/kg (i.v.): *p < 0.05; for Frequency (cycles of contraction per minute), 3.0 mg/kg (i.v.): **p < 0.01; for Frequency (cycles of contraction per minute), before administration: before administration (baseline); for action to suppress the frequency of contraction: i.v., cumulative, result in words
# [2] = prior art statement; cited from earlier work
# [3] = molecular target: detrusor muscles of excised rabbit bladder (Oryctolagus cuniculus, UniProt G1U308)
# From the text: 1. Action upon detrusor muscles of excised rabbit bladder
# (1) Anticholinergic action
# The specimens were contracted by carbachol cumulation, and a reaction curve with respect to carbachol concentration was obtained.
# Acute toxicity = assay: Acute toxicity; parameters: species or system mice; conditions: mouse, in vivo, po; mortality one week later, method of Weil
# Experimental: ddY-Mice (male; 6 to 7 week age) were used as test animals (each group consisting of four mice). Each of the mice was fasted from the previous day (16 to 18 hours before), a drug being tested was orally administered by using a gastric tube, and LD50 value was calculated from the mortality one week later according to the method of Weil.
# detrusor muscles of excised rabbit bladder (Oryctolagus cuniculus, UniProt G1U308), sequence (G1U308 entry or part of it): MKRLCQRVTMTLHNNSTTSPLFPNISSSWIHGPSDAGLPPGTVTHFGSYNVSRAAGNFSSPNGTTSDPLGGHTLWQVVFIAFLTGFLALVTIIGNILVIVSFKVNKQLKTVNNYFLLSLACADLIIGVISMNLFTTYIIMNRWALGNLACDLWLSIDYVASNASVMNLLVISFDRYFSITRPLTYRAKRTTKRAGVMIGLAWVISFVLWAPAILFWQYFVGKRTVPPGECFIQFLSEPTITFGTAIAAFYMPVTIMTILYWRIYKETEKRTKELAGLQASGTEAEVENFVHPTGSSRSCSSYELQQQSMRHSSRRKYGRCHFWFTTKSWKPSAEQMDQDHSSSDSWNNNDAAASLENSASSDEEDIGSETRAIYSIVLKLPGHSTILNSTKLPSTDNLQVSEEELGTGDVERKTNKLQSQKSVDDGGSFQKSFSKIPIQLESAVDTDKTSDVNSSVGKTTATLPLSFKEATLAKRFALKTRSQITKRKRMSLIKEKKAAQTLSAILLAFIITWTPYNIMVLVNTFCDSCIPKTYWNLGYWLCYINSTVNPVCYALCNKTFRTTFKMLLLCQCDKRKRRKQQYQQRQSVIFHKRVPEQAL
structure (smiles),measurement,setting,value
"CCN(CC)CC#CCOC(=O)C(O)(c1ccccc1)C1CCCCC1 (centres unmarked) [Oxybutynin, oxybutynin, reference compound]","pA2 value, Ca++ Antagonism",[1],5.80
same,half-life,in vivo,16.8 min
same,"Frequency (cycles of contraction per minute), 0.1 mg/kg (i.v.)",rat bladder,1.1 ± 0.2 cycles of contraction per minute
same,"Frequency (cycles of contraction per minute), 0.3 mg/kg (i.v.)",rat bladder,1.0 ± 0.2 cycles of contraction per minute
same,"Frequency (cycles of contraction per minute), 1.0 mg/kg (i.v.)",rat bladder,1.2 ± 0.1 cycles of contraction per minute
same,"Frequency (cycles of contraction per minute), 3.0 mg/kg (i.v.)",rat bladder,1.2 ± 0.2 cycles of contraction per minute
same,"Frequency (cycles of contraction per minute), before administration",rat bladder,1.0 ± 0.1 cycles of contraction per minute
same,action to suppress the frequency of contraction,rat bladder,no such action was observed
same,side effects,[2],exhibits side effects such as thirst
same,Kb,[3],2.75 nM
"CCN(CC)CC#CC(C)(C)OC(=O)C(O)(c1ccccc1)C1CCCCC1 (stereo not drawn) [Example 4, 4-diethylamino-1.1-dimethyl-2-butynyl α-cyclohexylα-phenylglycolate hydrochloride]",LD50 at 168 h,Acute toxicity,841 mg/kg
same,"pA2 value, Ca++ Antagonism",[1],6.72
same,Ca++ antagonism compared with oxybutynin,[1]; ratio to oxybutynin,8.3 times
same,half-life,in vivo,51 min
same,"Frequency (cycles of contraction per minute), 0.1 mg/kg (i.v.)",rat bladder,1.1 ± 0.3 cycles of contraction per minute
same,"Frequency (cycles of contraction per minute), 0.3 mg/kg (i.v.)",rat bladder,0.8 ± 0.2 cycles of contraction per minute
same,"Frequency (cycles of contraction per minute), 1.0 mg/kg (i.v.)",rat bladder,0.3 ± 0.1 cycles of contraction per minute
same,"Frequency (cycles of contraction per minute), 3.0 mg/kg (i.v.)",rat bladder,0.0 ± 0.0 cycles of contraction per minute
same,minimal effective dose,"rat bladder; Rattus norvegicus, iv, read-out: doses showing action to suppress the frequency of contraction",≥ 0.1 mg/kg
same,"Frequency (cycles of contraction per minute), before administration",rat bladder,1.3 ± 0.3 cycles of contraction per minute
same,action to suppress the frequency of contraction,rat bladder,dose-dependent action to suppress the frequency of contraction
same,Kb,[3],46.8 nM
same,anticholinergic action compared with oxybutynin,[3]; ratio to oxybutynin,1/17

# Reference: US5036098A, “Butynylamine derivatives and their production” (Nippon Shinyaku Co., Ltd., priority 1988, dated 1991)
